Laboratory results: patent publication US20210154268A1, “COMBINATION THERAPY USING A PEPTIDE” (CYTOVATION AS, priority 2018, published 2021)
Where no end group is shown, it is not given here. [ ]: non-standard residue; d: D form.

Legend:
[1] = tested on: MC38 colon carcinoma cells; test: MC38 colon carcinoma mouse model, tumour volume by caliper; type: in vivo; conditions: female C57/BL6N mice with MC38 tumours; CyPep-1 2 mg/kg intratumoural days 1 and 2; anti-PD-1 antibody 5 mg/kg intraperitoneal days 4, 8, 11, 15; unpaired two-tailed t-test; combination P=0.02
Procedure: Female C57/BL6N mice were shaved at the intended site of tumour inoculation. 4 days later the mice were implanted with 5×10^5 MC38 colon carcinoma cells in a mixture of 50% PBS and 50% matrigel in a total injection volume of 100 μl.
Tumour sizes were measured by caliper. When the median tumour volume reached 100 mm^3, 40 mice were randomised to four groups: 1) Ctr_IT; 2) Ctr_IT_PD1; 3) CyPep_IT; and 4) CyPep_IT_PD1.
The Ctr_IT group were administered 0.05 ml/kg intratumoural PBS on days 1 and 2.
The Ctr_IT_PD1 group were administered 0.05 ml/kg/day intratumoural PBS on days 1 and 2, and 5 mg/kg intraperitoneal anti-PD-1 antibody on days 4, 8, 11 and 15. The anti-PD-1 antibody was administered in PBS at a concentration of 1 mg/ml.
The CyPep_IT group were administered 2 mg/kg CyPep-1 on days 1 and 2. Administration was intratumoural in PBS at a concentration of 40 mg/ml.
The CyPep_IT_PD1 group were administered 2 mg/kg intratumoural CyPep-1 in PBS at a concentration of 40 mg/ml on days 1 and 2; and 5 mg/kg intraperitoneal anti-PD-1 antibody on days 4, 8, 11 and 15, in PBS at a concentration of 1 mg/ml.
All groups were standardised prior to checkpoint inhibitor administration by excluding animals with tumours+/−>2X average at day three. […] Average tumour volumes of the groups were analysed by unpaired two-tailed t-test, and the tumours were also histologically analysed.

tumour = conditions: animal models of disease; cited from earlier work
[2] = tested on: Gram-positive and Gram-negative bacteria; conditions: medically-relevant species of Gram-positive and Gram-negative bacteria; cited from earlier work
cancer cells = conditions: in vitro; cited from earlier work

Substance: CyPep-1: all D-amino acid peptide of SEQ ID NO: 1; Conductin/Axin2 fragment coupled to the C-terminus of the HIV-TAT cell-penetrating peptide ([dY]G[dR][dK][dK][dR][dR][dQ][dR][dR][dR]G[dK][dT][dL][dR][dV][dA][dK][dA][dI][dY][dK][dR][dY][dI][dE])
- tumour growth compared to the control group which received only PBS [1]: no statistically-significant difference
- anti-tumour effect (tumour): strong anti-tumour effect
- tolerability (tumour): well tolerated
- bacteriocidal effect [2]: potent bacteriocidal effect
- selective cytotoxicity towards cancer cells (cancer cells): selectively cytotoxic towards cancer cells
